Results reported in patent publication US20250136612A1, “4',5'-DIHYDROSPIRO[PIPERIDINE-4,7'-THIENO[2,3-C]PYRAN] DERIVATIVES AS INHIBITORS OF APOL1 AND METHODS OF USING SAME” (VERTEX PHARMACEUTICALS INCORPORATED, priority 2022, published 2025).

Each molecule was assayed against T1, APOL1 (Homo sapiens, UniProt O14791) (assay: MultiTox-Fluor Multiplex Cytotoxicity Assay in tet-inducible APOL1 T-REx-HEK293 cells). Settings: 50 ng/mL tet, 24 hours, ratio of dead to live cells, read-out: IP50 (i.e., IC50 for cell proliferation).
T1 sequence (O14791 1-398 S342G/I384M): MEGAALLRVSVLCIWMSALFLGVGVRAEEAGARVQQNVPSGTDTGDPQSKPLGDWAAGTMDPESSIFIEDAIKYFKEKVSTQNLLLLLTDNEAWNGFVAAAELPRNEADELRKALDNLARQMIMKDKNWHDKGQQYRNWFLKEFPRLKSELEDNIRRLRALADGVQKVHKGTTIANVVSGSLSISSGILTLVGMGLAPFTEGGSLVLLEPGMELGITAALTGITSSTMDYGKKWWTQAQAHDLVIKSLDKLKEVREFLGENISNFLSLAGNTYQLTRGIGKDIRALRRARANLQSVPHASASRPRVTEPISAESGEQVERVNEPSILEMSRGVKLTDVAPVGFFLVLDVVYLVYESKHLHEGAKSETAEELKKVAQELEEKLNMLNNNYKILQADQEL
Assay type: cell-based
Procedure: The MultiTox-Fluor Multiplex Cytotoxicity Assay is a single-reagent-addition, homogeneous, fluorescence assay that measures the number of live and dead cells simultaneously in culture wells. The assay measures cell viability and cytotoxicity by detecting two distinct protease activities. The live-cell protease activity is restricted to intact viable cells and is measured using a fluorogenic, cell-permeant peptide glycyl-phenylalanylamino fluorocoumarin (GF-AFC) substrate. The substrate enters intact cells, where it is cleaved to generate a fluorescent signal proportional to the number of living cells. […] A second, cell-impermeant, fluorogenic peptide substrate (bis-AAF-R110 Substrate) is used to measure dead-cell protease that has been released from cells that have lost membrane integrity. A ratio of dead to live cells is used to normalize data.
Briefly, the tet-inducible transgenic APOL1 T-REx-HEK293 cell lines were incubated with 50 ng/mL tet to induce APOL1 in the presence of 3-(2-(4-fluorophenyl)-1H-indol-3-yl)-N-((3S,4R)-4-hydroxy-2-oxopyrrolidin-3-yl)propenamide at 10.03, 3.24, 1.13, 0.356, 0.129, 0.042, 0.129, 0.0045, 0.0015, 0.0005 μM in duplicate for 24 hours in a humidified 37° C. incubator. The MultiTox reagent was added to each well and placed back in the incubator for an additional 30 minutes. The plate was read on the EnVision plate reader. A ratio of dead to live cells was used to normalize, and data was imported, analyzed, and fit using Genedata Screener (Basel, Switzerland) software. Data was normalized using percent of control, no tet (100% viability), and 50 ng/mL tet treated (0% viability),and fit using Smart Fit. The reagents, methods, and complete protocol for the MultiTox assay are described below.
Human embryonic kidney (HEK293) cell lines containing a tet-inducible expression system (T-REx™; Invitrogen, Carlsbad, CA) and Adeno-associated virus site 1 pAAVS1-Puro-APOL1 G0 or pAAVS1-Puro-APOL1 G1 or pAAVS1-Puro-APOL1 G2 Clones G0 DC2.13, G1 DC3.25, and G2 DC4.44 were grown in a T-225 flask at ˜90% confluency in cell growth media (DMEM, 10% Tet-free FBS, 2 mM L-glutamine, 100 Units/mL penicillin-streptomycin, 5 μg/mL blasticidin S HCl, 1 μg/mL puromycin dihydrochloride). Cells were washed with DPBS and then trypsinized to dissociate from the flask. Media was used to quench the trypsin, cells were then pelleted at 200 g and resuspended in fresh cell assay media (DMEM, 2% Tet-free FBS, 2 mM L-glutamine, 100 Units/mL penicillin-streptomycin). Cells were counted and diluted to 1.17×10^6 cells/mL. 20 μL of cells (23,400/well) were dispensed in every well of a 384-well Poly-D-Lysine coated plate using the Multidrop dispenser. The plates were then incubated at room temperature for one hour.
Tetracycline is needed to induce APOL1 expression. 1 mg/mL tet stock in water was diluted to 250 ng/mL (5×) in cell assay media. 60 μL of cell assay media (no tet control) was dispensed in columns 1 and 24, and 60 μL of 5×tet in 384-PP-round bottom plate was dispensed in columns 2 to 23 with the Multidrop dispenser.
Assay ready plates from the Global Compound Archive were ordered using template 384_APOL1Cell_DR10n2_50 uM_v3. Compounds were dispensed at 200 nL in DMSO. The final top concentration was 10 μM with a 10 point 3-fold dilution in duplicate in the MultiTox assay.
20 μL was transferred from the 5×tet plate to the ARP and mixed, then 5 μL of 5×tet and the compounds were transferred to the cell plate and mixed using the Bravo. The cell plate was placed in the humidified 37° C. 5% CO2 incubator for 24 hours.
The MultiTox-Fluor Multiplex Cytotoxicity Assay was performed in accordance with the manufacturer's protocol. After cells were incubated with tet and compound for 24 hours, 25 μL of 1×MultiTox reagent was added to each well using the Multidrop dispenser; the plates were placed on a plate shaker (600 rpm) for 2 minutes, then centrifuged briefly and placed back in the 37° C. incubator for 30 minutes. […]
`Cn1cc([C@@H]2CC3(CCN2)OCCc2cc(C4CC4)sc23)nn1` (stereo partly drawn) [Compound 30, (2S)-2′-cyclopropyl-2-(1-methyl-1H-1,2,3-triazol-4-yl)-4′,5′-dihydrospiro[piperidine-4,7′-thieno[2,3-c]pyran]] showed an IC50 of 500 to 1000 nM.
For `CN(C)C(=O)c1ccc(-n2cc([C@@H]3C[C@]4(CCN3)OCCc3cc(Cl)sc34)nn2)cc1` [Compound 68], the IC50 was 100 to 500 nM.
`Cn1cc([C@@H]2C[C@]3(CCN2)OCCc2cc(Cl)sc23)cn1` (single isomer, unassigned) [Compound 24] gave an IC50 of less than 100 nM.
For `Cn1cc(C2CC3(CCN2)OCC(O)c2cc(Br)sc23)nn1` (single isomer, unassigned) [Compound 45, 2-bromo-2′-(1-methyltriazol-4-yl)spiro[4,5-dihydrothieno[2,3-c]pyran-7,4′-piperidine]-4-ol], the IC50 was less than 100 nM.
`Cn1cc([C@@H]2C[C@]3(CCN2)OCCc2cc(C4CC4)sc23)nn1` (single isomer, unassigned) [Compound 31] was tested, and the IC50 was 100 to 500 nM.
For `CC1CO[C@]2(CCN[C@H](c3cn(C)nn3)C2)c2cc(Cl)sc21` (stereo partly drawn) [Compound 28], the IC50 was 100 to 500 nM.
In the case of `COc1cccc(-n2cc([C@@H]3C[C@]4(CCN3)OCCc3cc(Cl)sc34)nn2)c1` [Compound 71], the IC50 is reported as 100 to 500 nM.
With `CCc1cc2c(s1)CCOC21CCNC(c2ccc(F)cc2)C1` (single isomer, unassigned) [Compound 78, 2-ethyl-2′-(4-fluorophenyl)spiro[6,7-dihydrothieno[3,2-c]pyran-4,4′-piperidine]] the IC50 was 500 to 1000 nM.
Molecule `Cc1ncc(C2CC3(CCN2)OCCc2cc(Cl)sc23)cn1` (stereo not drawn) [Compound 1, 2-chloro-2′-(2-methylpyrimidin-5-yl)spiro[4,5-dihydrothieno[2,3-c]pyran-7,4′-piperidine]] has an IC50 of 100 to 500 nM.
Work on `CN1Cc2ccc(-n3cc([C@@H]4C[C@]5(CCN4)OCCc4cc(Cl)sc45)nn3)cc2C1=O` [Compound 62] yielded an IC50 of 100 to 500 nM.
Work on `CCc1cc2c(s1)CCOC21CCNC(c2cn[nH]c2)C1` (stereo not drawn) [Compound 13] yielded an IC50 of 500 to 1000 nM.
With `Cn1cc(C2CC3(CCN2)OCC(O)c2cc(C4CC(F)(F)C4)sc23)nn1` (stereo not drawn) [Compound 47] the IC50 was 500 to 1000 nM.
`CN1Cc2cc(-n3cc([C@@H]4C[C@]5(CCN4)OCCc4cc(Cl)sc45)nn3)ccc2C1=O` [Compound 60] showed an IC50 of 100 to 500 nM.
`Cc1cc2c(s1)C1(CCN[C@H](c3cn(C)nn3)C1)OCC2` (single isomer, unassigned) [Compound 32] gave an IC50 of 100 to 500 nM.
`Fc1ccccc1-n1cc([C@@H]2C[C@]3(CCN2)OCCc2cc(Cl)sc23)nn1` [Compound 74] was tested, and the IC50 was 500 to 1000 nM.
For `Cn1cc([C@@H]2C[C@]3(CCN2)OCC(C)(O)c2cc(Cl)sc23)nn1` (single isomer, unassigned) [Compound 38], the IC50 was 100 to 500 nM.
`CS(=O)(=O)CCn1cc([C@@H]2C[C@]3(CCN2)OCCc2cc(Cl)sc23)nn1` [Compound 73] was tested, and the IC50 was 500 to 1000 nM.
For `Cc1cc2c(s1)CCOC21CCNC(C2CC2)C1` (stereo not drawn) [Compound 20], the IC50 was 500 to 1000 nM.
`FC(F)Cc1cc2c(s1)C1(CCNC(c3ccccc3)C1)OCC2` (stereo not drawn) [Compound 50] was tested, and the IC50 was 100 to 500 nM.
`Oc1ccccc1-n1cc([C@@H]2C[C@]3(CCN2)OCCc2cc(Cl)sc23)nn1` [Compound 75] was tested, and the IC50 was 500 to 1000 nM.
In the case of `Cn1cc([C@@H]2C[C@]3(CCN2)OCCc2cc(I)sc23)nn1` [Compound 33, (2S,4S)-2′-iodo-2-(1-methyl-1H-1,2,3-triazol-4-yl)-4′,5′-dihydrospiro[piperidine-4,7′-thieno[2,3-c]pyran]], the IC50 is reported as less than 100 nM.
`CCc1cc2c(s1)CCOC21CCNC(c2ccnnc2)C1` (stereo not drawn) [Compound 15] gave an IC50 of 500 to 1000 nM.
`CCc1cc2c(s1)CCOC21CCNC(C2(C)COC2)C1` (stereo not drawn) [Compound 16] gave an IC50 of 500 to 1000 nM.
Molecule `NC(=O)c1ccc(-n2cc([C@@H]3C[C@]4(CCN3)OCCc3cc(Cl)sc34)nn2)cc1` [Compound 59] has an IC50 of 100 to 500 nM.
For `Cn1cc([C@@H]2C[C@]3(CCN2)OCC(O)(C(F)F)c2cc(Cl)sc23)nn1` (single isomer, unassigned) [Compound 40], the IC50 was less than 100 nM.
For `CCc1cc2c(s1)CCOC21CCNC(c2cnn(CCS(C)(=O)=O)c2)C1` (stereo not drawn) [Compound 7], the IC50 was 100 to 500 nM.
`Clc1cc2c(s1)[C@@]1(CCN[C@H](c3cn(-c4ccccn4)nn3)C1)OCC2` [Compound 69] showed an IC50 of 100 to 500 nM.
Molecule `Cn1ncc(C2CC3(CCN2)OCCc2cc(Cl)sc23)n1` (stereo not drawn) [Compound 17] has an IC50 of 500 to 1000 nM.
For `Cn1cc([C@@H]2C[C@]3(CCN2)OCC(O)c2cc(Cl)sc23)nn1` (stereo partly drawn) [Compound 36, (2S,4S)-2′-chloro-2-(1-methyl-1H-1,2,3-triazol-4-yl)-4′,5′-dihydrospiro[piperidine-4,7′-thieno[2,3-c]pyran]-4′-ol], the IC50 was 100 to 500 nM.
With `COC1CO[C@]2(CCN[C@H](c3cn(C)nn3)C2)c2sc(Cl)cc21` (single isomer, unassigned) [Compound 42] the IC50 was 500 to 1000 nM.
`Oc1ccc(-n2cc([C@@H]3C[C@]4(CCN3)OCCc3cc(Cl)sc34)nn2)cc1` [Compound 65] showed an IC50 of 100 to 500 nM.
`FC(F)(F)c1cc2c(s1)CCOC21CCNC(C2CC2)C1` (stereo not drawn) [Compound 21] was tested, and the IC50 was 100 to 500 nM.
For `Cn1cc(C2CC3(CCN2)OCC(O)c2cc(Br)sc23)nn1` (single isomer, unassigned) [Compound 44, 2-bromo-2′-(1-methyltriazol-4-yl)spiro[4,5-dihydrothieno[2,3-c]pyran-7,4′-piperidine]-4-ol], the IC50 was 500 to 1000 nM.
